Data as given in patent US20030181461A1, “Use of phosphodiesterase antagonists to treat insulin resistance” (priority 2002, published 2003).

What was measured:
[1] = tested on: insulin resistance in cats; assay: Development of insulin resistance in cats after muscarinic antagonists (RIST); format: in vivo
Description: To avoid the complexity of the reaction to hypoglycemia, the rapid insulin sensitivity test (RIST) was employed (Lautt et al., Can. J. Physiol. Pharmacol. 76:1080 (1998)) wherein a euglycemic clamp was used following the administration of insulin and the response was quantitated as the amount of glucose required to be infused over the test period in order to hold arterial blood glucose levels constant.

[2] = tested on: insulin sensitivity in atropine-treated rats; assay: Rapid insulin sensitivity test (RIST) in rats with atropine-induced 75% HISS-dependent insulin resistance; format: in vivo, Male Sprague Dawley rats; details: zaprinast 0.1 mg/kg ipv
Experimental: Methods for reversal of HISS-dependent insulin resistance using a phosphodiesterase inhibitor in normal rats Male Sprague Dawley rats (250-300 g) were allowed free access to water and normal rodent food for 1 week prior to all studies. Rats were fasted for 8 hours overnight and fed for 2 hours before the start of study. Rats were anesthetized with pentobarbital-sodium (65 mg/ml, ip injection, 0.1 ml/100 g body weight). Animals were placed on a heated thermostatically controlled surgical table to maintain body temperature during surgery and the experimental procedure. An extra-corporeal arterial-venous shunt (the loop) was established between the right femoral artery and right femoral vein, according to a published, standard operating procedure developed in our laboratory (Xie et al., 1996). The loop allows for regular blood sampling of arterial blood throughout the experiment as well as infusion of intravenous drugs and monitoring of arterial blood pressure. […] A laparotomy was performed and an indwelling portal venous catheter was inserted using a portal vein puncture technique. The portal catheter was used to administer the phosphodiesterase inhibitor directly to the liver. […] At this point, blood samples (25 μl) were taken at regular intervals from the loop and analyzed for glucose concentration. […] Glucose levels were monitored every 2 minutes during and after the infusion of insulin. […]

Compound: COc1ccccc1CNCCCCCCNCCCCCCCCNCCCCCCNCc1ccccc1OC [methoctramine]
- Dose required to produce a full (similar degree of) insulin resistance [1]: 10^−6 μmol/kg

Compound: CCCOc1ccccc1-c1nc2nn[nH]c2c(=O)[nH]1 [zaprinast]
- Reversal of HDIR produced by atropine [2]: able to reverse the HDIR produced by atropine
